Entries after “also recorded” stand apart in the source; their conditions may differ.
Tests used:
[1] = test system: WAT (browning of white adipose tissue); experiment: In vivo DRS measurement of lipid fraction (browning marker) in adipose tissue; design: species or system BALB/c nude mice
Source text: In particular, FIG. 5 depicts a schematic drawing of an example setup of in vivo DRS measurement system 500 for obtaining (e.g., generating or measuring) diffuse reflectance spectrum information (raw diffuse reflectance spectrum information) in a mouse model with partial skin incision using DRS spectroscopy in the NIR II optical window. In this regard, browning was induced in mice for 7 days by β-adrenergic administration followed by DRS measurement in the 1050 to 1350 nm range using an excitation-collection fiber probe 506 with source-detector fiber separations 508 configured to achieve a desired or sufficient depth of interrogation. The measured diffuse reflectance spectrum information obtained at the adipose tissue site was then processed according to various example embodiments to extract or derive water and lipid chromophore fractions (or water and lipid proportions or ratios) at the adipose tissue site in the 1050 nm to 1350 nm wavelength range. The water and lipid chromophore fractions were estimated from the measured DRS spectra by employing a lookup table (LUT) based on inverse Monte-Carlo modelling. In other words, the measured DRS spectra at the adipose tissue site is spectrally unmixed particularly for water and lipid chromophores using the Monte-Carlo based LUT within the wavelength range of 1050 nm to 1400 nm, or more preferably, 1050 nm to 1350 nm. […]

Ucp1 [2] = experiment: Real-Time qPCR of Ucp1 mRNA in adipose tissues of treated mice; format: in vivo, BALB/c nude mice; conditions: normalized to Gapdh mRNA
Experimental: (§1) Mice (n=4; each group) were injected daily with either CL 316, 243 hydrate (1 mg/kg body weight intraperitoneally in test group (CL) or equal volume of saline in control (C) group animals for 7 days. After the in vivo DRS experiment, the mice was euthanized and fresh WAT tissues in control (C) and CL group were extracted and immediately frozen for RNA and protein expression analyses. WAT from the inguinal region and BAT from the interscapular region were stored in 10% normal buffered formalin (NBF) for hematoxylin and eosin (H&E) staining and Immunohistochemistry (IHC). BAT tissues extracted from mice injected with saline is marked as C BAT while BAT from CL injected mice as CL BAT. Similarly, WAT and beige refer to the WATs in saline (control) and CL injected group, respectively.
In various example embodiments, total RNA was extracted with the RNeasy Lipid Tissue Mini Kit (Qiagen, Hilden, Germany) according to the manufacturer's instruction and Real-Time PCR was conducted using UCP1 primer pair UCP1_F: 5′-GGCCTCTACGACTCAGTCCA-3′ and UCP1_R: 5′-TAAGCCGGCTGAGATCTTGT-3′. GAPDH was used to normalize the relative mRNA expression by using a primer pair GAPDH_F: 5′-CAA GGT CAT CCA CTT-3′ and GAPDH_R: 5′-GGC CAT CCA CAG TCT GG-3′. The results are represented as mean±SE (n=4 in each group).

Ucp1 [3] = experiment: Western blot analysis of UCP1 protein in adipose tissues of treated mice; format: in vivo, BALB/c nude mice; conditions: loading control β-ACTIN, vs saline WAT, hydrate
Experimental: as §1
In various example embodiments, total protein lysates isolation from adipose tissues extracted from mice administered with either saline or CL (n=4, each group) was done in RadioImmunoPrecipitation Assay (RIPA) lysis buffer and quantified using the Biorad assay. Equal volume of proteins were loaded onto 10% Sodium Dodecyl Sulfate-Polyacrylamide Gel Electrophoresis (SDS-PAGE) followed by transfer to the PolyVinyliDene Fluoride (PVDF) membrane. […]

WAT and BAT adipocytes = experiment: H&E staining of WAT and BAT of treated mice; format: in vivo, BALB/c nude mice
Experimental: as §1
(§2) In various example embodiments, H&E staining and UCP1 IHC were performed by the Advanced Molecular Pathology Laboratory (AMPL) at the Institute of Molecular and Cell Biology (IMCB), A*STAR, according to standard operating procedures. 1:50 dilution of UCP1 antibody (Abcam) at pH 6.0 was used for UCP1 IHC. All the images were obtained by using Olympus microscope equipped with DS-L3+Filc camera with a ×20 objective lens. Software ImageJ was used to analyse the images.

Ucp1 [4] = experiment: UCP1 immunohistochemistry (IHC) of WAT and BAT of treated mice; format: in vivo, BALB/c nude mice
Experimental: as §1, §2

[5] = inguinal WAT, vs saline control WAT, hydrate
[6] = interscapular BAT, CL vs saline

SMILES: C[C@H](Cc1ccc2c(c1)OC(C(=O)[O-])(C(=O)[O-])O2)NC[C@H](O)c1cccc(Cl)c1.[Na+].[Na+] [CL, CL 316, 243 hydrate]
- lipid fraction (SLW) of beige adipose tissue (CL treated WAT) ([1]; mice, 1 mg/kg intraperitoneally daily for 7 days, DRS 1050 to 1350 nm, MCLUT unmixing, control WAT 0.70±0.095, BAT 0.518±0.112): 0.628±0.076 a.u.
- extent of WAT browning indicated by calculated SLW ([1]; over a period of 7 days, CL treated animals): about 50%
- Ucp1 mRNA expression in BAT (Ucp1 [2]; BAT (CL) vs BAT (C)): did not significantly change
- Ucp1 mRNA expression in WAT (beige) relative to saline control (WAT) (Ucp1 [2]; 1 mg/kg i.p. daily, 7 days): significantly enhanced
- UCP1 protein expression in WAT (beige) (Ucp1 [3]): significantly induced; also recorded: higher expression
- adipocyte morphology in WAT (beige), H&E staining (WAT and BAT adipocytes; [5]): subpopulation of multilocular adipocytes are emerging
- adipocyte appearance in BAT, H&E staining (WAT and BAT adipocytes; [6]): appearance was not changed
- UCP1 IHC signal in WAT (beige) (Ucp1 [4]; [5]): significant emergence of UCP1 expression; also recorded: increased UCP1 staining
- UCP1 IHC signal in BAT (Ucp1 [4]; [6]): not changed

— patent US20200367756A1, “METHOD AND SYSTEM FOR IN VIVO DETECTION OF ADIPOSE TISSUE BROWNING” (Agency for Science, Technology and Research, priority 2018, published 2020)
